Tested on: Acinetobacter baumannii strains
Test: Antibiotic susceptibility test (CLSI disk diffusion test method, read per CLSI 2016); on antibiotic susceptibility S/I/R: key: ‘S’ means susceptible; ‘I’ means intermediate; ‘R’ means resistant; on susceptibility category (S/I/R): key: ‘S’ means susceptible; ‘I’ means intermediate; ‘R’ means resistant
Type: cell-based
Set-up: antibiotic susceptibility test value / susceptibility test value (number given before S/I/R) / antibiotic susceptibility value: unit not given here

cortrimoxazole
antibiotic susceptibility S/I/R (host strain YMC17/02/B87): R | antibiotic susceptibility value (host strain YMC17/02/B87): 320 | susceptibility category (S/I/R) (host strain YMC17/02/B87): R | susceptibility test value (number given before S/I/R) (host strain YMC17/02/B87): 320 | antibiotic susceptibility S/I/R (host strain YMC17/02/B721): R | antibiotic susceptibility value (host strain YMC17/02/B721): 320 | susceptibility category (S/I/R) (host strain YMC17/02/B721): R | susceptibility test value (number given before S/I/R) (host strain YMC17/02/B721): 320 | antibiotic susceptibility S/I/R (host strain YMC17/02/B4039): R | antibiotic susceptibility value (host strain YMC17/02/B4039): 80 | susceptibility category (S/I/R) (host strain YMC17/02/B4039): R | susceptibility test value (number given before S/I/R) (host strain YMC17/02/B4039): 80 | antibiotic susceptibility S/I/R (host strain YMC17/02/B4520): R | antibiotic susceptibility value (host strain YMC17/02/B4520): 160 | susceptibility category (S/I/R) (host strain YMC17/02/B4520): R | susceptibility test value (number given before S/I/R) (host strain YMC17/02/B4520): 160 | antibiotic susceptibility S/I/R (host strain YMC17/02/B4864): S | antibiotic susceptibility value (host strain YMC17/02/B4864): 20 | susceptibility category (S/I/R) (host strain YMC17/02/B4864): S | susceptibility test value (number given before S/I/R) (host strain YMC17/02/B4864): 20 | antibiotic susceptibility S/I/R (host strain YMC17/02/B8414): R | antibiotic susceptibility value (host strain YMC17/02/B8414): 320 | susceptibility category (S/I/R) (host strain YMC17/02/B8414): R | susceptibility test value (number given before S/I/R) (host strain YMC17/02/B8414): 320 | antibiotic susceptibility S/I/R (host strain YMC17/02/P523): S | antibiotic susceptibility value (host strain YMC17/02/P523): 20 | susceptibility category (S/I/R) (host strain YMC17/02/P523): S | susceptibility test value (number given before S/I/R) (host strain YMC17/02/P523): 20 | antibiotic susceptibility S/I/R (host strain YMC17/02/R541): R | antibiotic susceptibility value (host strain YMC17/02/R541): 320 | susceptibility category (S/I/R) (host strain YMC17/02/R541): R | susceptibility test value (number given before S/I/R) (host strain YMC17/02/R541): 320 | antibiotic susceptibility S/I/R (host strain YMC17/02/R2392): R | antibiotic susceptibility value (host strain YMC17/02/R2392): 320 | susceptibility category (S/I/R) (host strain YMC17/02/R2392): R | susceptibility test value (number given before S/I/R) (host strain YMC17/02/R2392): 320 | antibiotic susceptibility S/I/R (host strain YMC17/03/B4730): R | antibiotic susceptibility value (host strain YMC17/03/B4730): 320 | susceptibility category (S/I/R) (host strain YMC17/03/B4730): R | susceptibility test value (number given before S/I/R) (host strain YMC17/03/B4730): 320 | antibiotic susceptibility S/I/R (host strain YMC17/03/B5000): R | antibiotic susceptibility value (host strain YMC17/03/B5000): 320 | susceptibility category (S/I/R) (host strain YMC17/03/B5000): R | susceptibility test value (number given before S/I/R) (host strain YMC17/03/B5000): 320 | antibiotic susceptibility S/I/R (host strain YMC17/03/P971): R | antibiotic susceptibility value (host strain YMC17/03/P971): 320 | susceptibility category (S/I/R) (host strain YMC17/03/P971): R | susceptibility test value (number given before S/I/R) (host strain YMC17/03/P971): 320 | antibiotic susceptibility S/I/R (host strain YMC17/03/R348): R | antibiotic susceptibility value (host strain YMC17/03/R348): 320 | susceptibility category (S/I/R) (host strain YMC17/03/R348): R | susceptibility test value (number given before S/I/R) (host strain YMC17/03/R348): 320 | antibiotic susceptibility S/I/R (host strain YMC17/03/R585): R | antibiotic susceptibility value (host strain YMC17/03/R585): 320 | susceptibility category (S/I/R) (host strain YMC17/03/R585): R | susceptibility test value (number given before S/I/R) (host strain YMC17/03/R585): 320 | antibiotic susceptibility S/I/R (host strain YMC17/03/R1888): R | antibiotic susceptibility value (host strain YMC17/03/R1888): 320 | susceptibility category (S/I/R) (host strain YMC17/03/R1888): R | susceptibility test value (number given before S/I/R) (host strain YMC17/03/R1888): 320 | antibiotic susceptibility S/I/R (host strain YMC17/03/R3279): R | antibiotic susceptibility value (host strain YMC17/03/R3279): 320 | susceptibility category (S/I/R) (host strain YMC17/03/R3279): R | susceptibility test value (number given before S/I/R) (host strain YMC17/03/R3279): 320 | antibiotic susceptibility S/I/R (host strain YMC17/03/R4077): R | antibiotic susceptibility value (host strain YMC17/03/R4077): 320 | susceptibility category (S/I/R) (host strain YMC17/03/R4077): R | susceptibility test value (number given before S/I/R) (host strain YMC17/03/R4077): 320 | antibiotic susceptibility S/I/R (host strain YMC17/03/R4607): R | antibiotic susceptibility value (host strain YMC17/03/R4607): 320 | susceptibility category (S/I/R) (host strain YMC17/03/R4607): R | susceptibility test value (number given before S/I/R) (host strain YMC17/03/R4607): 320 | antibiotic susceptibility S/I/R (host strain YMC17/04/R488): R | antibiotic susceptibility value (host strain YMC17/04/R488): 160 | susceptibility category (S/I/R) (host strain YMC17/04/R488): R | susceptibility test value (number given before S/I/R) (host strain YMC17/04/R488): 160 | antibiotic susceptibility S/I/R (host strain YMC17/04/R640): R | antibiotic susceptibility value (host strain YMC17/04/R640): 320 | susceptibility category (S/I/R) (host strain YMC17/04/R640): R | susceptibility test value (number given before S/I/R) (host strain YMC17/04/R640): 320 | antibiotic susceptibility S/I/R (host strain YMC/17/05/R1095): R | antibiotic susceptibility value (host strain YMC/17/05/R1095): 320 | susceptibility category (S/I/R) (host strain YMC/17/05/R1095): R | susceptibility test value (number given before S/I/R) (host strain YMC/17/05/R1095): 320

From patent publication US20240000872A1, “NOVEL BACTERIOPHAGE THAT LYSES ACINETOBACTER GENUS BACTERIA HAVING RESISTANCE TO ANTIBIOTICS” (priority 2020, published 2024)
